Measurements: the supplement of paper PMC10307832

Columns and labels:
Experiment in all cases: relative viability (nuclei count vs DMSO), 5 days (fraction); higher = more cells survive
HOP-62 = system: HOP-62
Method in brief: (§1)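 Relative viability divides the nuclei count in treated wells by that in vehicle wells. Lung cancer cell lines were seeded in 1536-well plates, dosed by pin tool the next day, and fixed and stained after 5 days in one step with final 0.05% Triton X-100, 1% formaldehyde and 1 ug/ml Hoechst. Dosing was a single drug or a fixed anchor-drug dose plus five library-drug doses (not always all listed) in √10 steps, and values are medians of duplicate plates imaged at 4×.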

NCI-H647 = system: NCI-H647
Method in brief: as §1

LCLC-103H = system: LCLC-103H
Method in brief: as §1

NCI-H2405 = system: NCI-H2405
Method in brief: as §1

NCI-H1793 = system: NCI-H1793
Method in brief: as §1

NCI-H1437 = system: NCI-H1437
Method in brief: as §1

BEN = system: BEN
Method in brief: as §1

HCC-44 = system: HCC-44
Method in brief: as §1

NCI-H1395 = system: NCI-H1395
Method in brief: as §1

LCLC-97TM1 = system: LCLC-97TM1
Method in brief: as §1

NCI-H727 = system: NCI-H727
Method in brief: as §1

HCC-827 = system: HCC-827
Method in brief: as §1

RERF-LC-KJ = system: RERF-LC-KJ
Method in brief: as §1

CAL-12T = system: CAL-12T
Method in brief: as §1

LXF-289 = system: LXF-289
Method in brief: as §1

201T = system: 201T
Method in brief: as §1

NCI-H2228 = system: NCI-H2228
Method in brief: as §1

SK-LU-1 = system: SK-LU-1
Method in brief: as §1

NCI-H322M = system: NCI-H322M
Method in brief: as §1

NCI-H3122 = system: NCI-H3122
Method in brief: as §1

NCI-H1944 = system: NCI-H1944
Method in brief: as §1

NCI-H2087 = system: NCI-H2087
Method in brief: as §1

In the case of `Oc1nc(-c2ccc(C(F)(F)F)cc2)nc2c1CSCC2` [XAV939] + Cc1nc(NC(=O)N2CCC[C@H]2C(N)=O)sc1-c1ccnc(C(C)(C)C(F)(F)F)c1 [Alpelisib] (partner 2 µM), the relative viability (HOP-62; first compound 0.08 µM) was 1.02, the relative viability (HOP-62; first compound 0.253 µM) was 0.54 and the relative viability (HOP-62; first compound 0.8 µM) was 0.673. For the same molecule, the relative viability (HOP-62; first compound 2.53 µM) was 0.69, the relative viability (NCI-H647; first compound 0.08 µM) was 1.25 and the relative viability (NCI-H647; first compound 0.253 µM) was 1. It also gave a relative viability (NCI-H647; first compound 0.8 µM) of 1.06, a relative viability (NCI-H647; first compound 2.53 µM) of 0.922 and a relative viability (LCLC-103H; first compound 0.08 µM) of 0.941. It also gave a relative viability (LCLC-103H; first compound 0.253 µM) of 0.766, a relative viability (LCLC-103H; first compound 0.8 µM) of 0.852 and a relative viability (LCLC-103H; first compound 2.53 µM) of 0.873. The relative viability (NCI-H2405; first compound 0.08 µM) was 0.922, the relative viability (NCI-H2405; first compound 0.253 µM) was 0.804 and the relative viability (NCI-H2405; first compound 0.8 µM) was 0.732. The relative viability (NCI-H2405; first compound 2.53 µM) was 0.635, the relative viability (NCI-H1793; first compound 0.08 µM) was 0.589 and the relative viability (NCI-H1793; first compound 0.253 µM) was 0.59. The relative viability (NCI-H1793; first compound 0.8 µM) was 0.697, the relative viability (NCI-H1793; first compound 2.53 µM) was 0.708 and the relative viability (NCI-H1437; first compound 0.08 µM) was 1.03. For the same molecule, the relative viability (NCI-H1437; first compound 0.253 µM) was 0.709, the relative viability (NCI-H1437; first compound 0.8 µM) was 0.97 and the relative viability (NCI-H1437; first compound 2.53 µM) was 0.715. For the same molecule, the relative viability (BEN; first compound 0.08 µM) was 1.08, the relative viability (BEN; first compound 0.253 µM) was 0.921 and the relative viability (BEN; first compound 0.8 µM) was 1.01. For the same molecule, the relative viability (HCC-44; first compound 0.08 µM) was 0.953, the relative viability (HCC-44; first compound 0.253 µM) was 0.675 and the relative viability (HCC-44; first compound 0.8 µM) was 0.775. The relative viability (HCC-44; first compound 2.53 µM) was 0.737, the relative viability (NCI-H1395; first compound 0.08 µM) was 1.09 and the relative viability (NCI-H1395; first compound 0.253 µM) was 1.03. The relative viability (NCI-H1395; first compound 0.8 µM) was 1.08, the relative viability (NCI-H1395; first compound 2.53 µM) was 1.06 and the relative viability (LCLC-97TM1; first compound 0.08 µM) was 0.256. The relative viability (LCLC-97TM1; first compound 0.253 µM) was 0.232, the relative viability (LCLC-97TM1; first compound 0.8 µM) was 0.252 and the relative viability (LCLC-97TM1; first compound 2.53 µM) was 0.243. It also gave a relative viability (NCI-H727; first compound 0.08 µM) of 0.656, a relative viability (NCI-H727; first compound 0.253 µM) of 0.38 and a relative viability (NCI-H727; first compound 0.8 µM) of 0.626. The relative viability (NCI-H727; first compound 2.53 µM) was 0.65, the relative viability (HCC-827; first compound 0.08 µM) was 1.04 and the relative viability (HCC-827; first compound 0.253 µM) was 0.934. It also gave a relative viability (HCC-827; first compound 0.8 µM) of 0.967, a relative viability (HCC-827; first compound 2.53 µM) of 0.969 and a relative viability (RERF-LC-KJ; first compound 0.08 µM) of 0.702. For the same molecule, the relative viability (RERF-LC-KJ; first compound 0.253 µM) was 0.708, the relative viability (RERF-LC-KJ; first compound 0.8 µM) was 0.768 and the relative viability (RERF-LC-KJ; first compound 2.53 µM) was 0.735. For the same molecule, the relative viability (CAL-12T; first compound 0.08 µM) was 1.42, the relative viability (CAL-12T; first compound 0.253 µM) was 0.932 and the relative viability (CAL-12T; first compound 0.8 µM) was 1.2. For the same molecule, the relative viability (CAL-12T; first compound 2.53 µM) was 0.73, the relative viability (LXF-289; first compound 0.08 µM) was 1.04 and the relative viability (LXF-289; first compound 0.253 µM) was 0.996. It also gave a relative viability (LXF-289; first compound 0.8 µM) of 1.01, a relative viability (LXF-289; first compound 2.53 µM) of 1.01 and a relative viability (201T; first compound 0.08 µM) of 1. It also gave a relative viability (201T; first compound 0.253 µM) of 0.875, a relative viability (201T; first compound 0.8 µM) of 0.947 and a relative viability (201T; first compound 2.53 µM) of 0.902. It also gave a relative viability (NCI-H2228; first compound 0.08 µM) of 0.708, a relative viability (NCI-H2228; first compound 0.253 µM) of 0.757 and a relative viability (NCI-H2228; first compound 0.8 µM) of 0.536. It also gave a relative viability (NCI-H2228; first compound 2.53 µM) of 0.463, a relative viability (SK-LU-1; first compound 0.08 µM) of 0.993 and a relative viability (SK-LU-1; first compound 0.253 µM) of 0.883. It also gave a relative viability (SK-LU-1; first compound 0.8 µM) of 1, a relative viability (SK-LU-1; first compound 2.53 µM) of 1.07 and a relative viability (NCI-H322M; first compound 0.08 µM) of 0.844. It also gave a relative viability (NCI-H322M; first compound 0.253 µM) of 0.656, a relative viability (NCI-H322M; first compound 0.8 µM) of 0.741 and a relative viability (NCI-H322M; first compound 2.53 µM) of 0.718. It also gave a relative viability (NCI-H3122; first compound 0.08 µM) of 0.812, a relative viability (NCI-H3122; first compound 0.253 µM) of 0.575 and a relative viability (NCI-H3122; first compound 0.8 µM) of 0.757. The relative viability (NCI-H3122; first compound 2.53 µM) was 0.358, the relative viability (NCI-H1944; first compound 0.08 µM) was 0.939 and the relative viability (NCI-H1944; first compound 0.253 µM) was 0.765. The relative viability (NCI-H1944; first compound 0.8 µM) was 0.751, the relative viability (NCI-H1944; first compound 2.53 µM) was 0.786 and the relative viability (NCI-H2087; first compound 0.08 µM) was 1.24. The relative viability (NCI-H2087; first compound 0.253 µM) was 0.914, the relative viability (NCI-H2087; first compound 0.8 µM) was 1.09 and the relative viability (NCI-H2087; first compound 2.53 µM) was 0.889.
